± gives the standard deviation of the averaged measurements.
Assays:
Assay in all cases: relative viability vs DMSO control (72 h) (fraction); higher = more viable cells
[1] = test system: RD
Summary of the method: (§1)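 ATPLite readings, expressed as percent growth and averaged over up to triplicate wells, provided relative viability. Before reading, sarcoma cell lines seeded in 384-well plates to reach 80–90% confluence received 2.5 µl of serially diluted compound after 24 h, from source plates of 10 mM to 0.0002 mM. Plates were held 72 h at 37 °C, 5% CO2, with 0.1% DMSO as vehicle and a 5 µM positive control. The data were rescaled to 1 for full and 0 for none.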

[2] = test system: KHOS-240S
Summary of the method: as §1

[3] = test system: MES-SA
Summary of the method: as §1

[4] = test system: SW1353
Summary of the method: as §1

[5] = test system: SYO-1
Summary of the method: as §1

CO[C@H]1C[C@@H]2CC[C@@H](C)[C@@](O)(O2)C(=O)C(=O)N2CCCC[C@H]2C(=O)O[C@H]([C@H](C)C[C@@H]2CC[C@@H](OCCO)[C@H](OC)C2)CC(=O)[C@H](C)/C=C(\C)[C@@H](O)[C@@H](OC)C(=O)[C@H](C)C[C@H](C)/C=C/C=C/C=C/1C [Certican]
relative viability
Settings | [1] | [2] | [3] | [4] | [5]
0.00017 µM | 1.09 ± 0.046 | 1.05 ± 0.023 | 0.862 ± 0.053 | 0.915 ± 0.014 | 0.904 ± 0.032
0.00051 µM | 1.09 ± 0.059 | 1.01 ± 0.087 | 0.803 ± 0.031 | 0.875 ± 0.023 | 0.876 ± 0.052
0.00152 µM | 0.964 ± 0.078 | 0.935 ± 0.093 | 0.608 ± 0.021 | 0.855 ± 0.069 | 0.852 ± 0.063
0.00457 µM | 0.888 ± 0.045 | 0.889 ± 0.061 | 0.489 ± 0.016 | 0.772 ± 0.09 | 0.84 ± 0.062
0.01372 µM | 0.848 ± 0.013 | 0.851 ± 0.037 | 0.422 ± 0.012 | 0.76 ± 0.073 | 0.808 ± 0.074
0.04115 µM | 0.8231 ± 0.0035 | 0.845 ± 0.046 | 0.398 ± 0.013 | 0.746 ± 0.065 | 0.788 ± 0.08
0.1235 µM | 0.773 ± 0.032 | 0.815 ± 0.051 | 0.378 ± 0.011 | 0.708 ± 0.05 | 0.755 ± 0.058
0.3704 µM | 0.7358 ± 0.0052 | 0.786 ± 0.041 | 0.373 ± 0.015 | 0.71 ± 0.018 | 0.755 ± 0.058
1.111 µM | 0.73 ± 0.044 | 0.784 ± 0.052 | 0.377 ± 0.0085 | 0.696 ± 0.025 | 0.729 ± 0.041
3.333 µM | 0.71 ± 0.071 | 0.75 ± 0.051 | 0.358 ± 0.0061 | 0.677 ± 0.034 | 0.738 ± 0.037
10 µM | 0.657 ± 0.065 | 0.717 ± 0.059 | 0.332 ± 0.0052 | 0.6966 ± 0.0026 | 0.742 ± 0.03

CCC(=O)N1CC[C@H](Nc2ncnc3c2CN(c2cnc(OC)c(C(F)(F)F)c2)CC3)C1 [Leniolisib]
relative viability
Settings | [1] | [2] | [3] | [4] | [5]
0.00017 µM | 1.08 ± 0.06 | 1.03 ± 0.017 | 0.966 ± 0.035 | 1.02 ± 0.025 | 1.03 ± 0.022
0.00051 µM | 1.09 ± 0.018 | 1.05 ± 0.023 | 0.94 ± 0.042 | 1.04 ± 0.031 | 0.999 ± 0.04
0.00152 µM | 1.11 ± 0.014 | 1.05 ± 0.04 | 0.932 ± 0.014 | 0.985 ± 0.024 | 0.984 ± 0.02
0.00457 µM | 1.11 ± 0.029 | 1.06 ± 0.056 | 0.934 ± 0.034 | 0.999 ± 0.024 | 0.965 ± 0.062
0.01372 µM | 1.12 ± 0.034 | 1.05 ± 0.045 | 0.936 ± 0.023 | 0.97 ± 0.011 | 0.947 ± 0.024
0.04115 µM | 1.09 ± 0.015 | 1.02 ± 0.019 | 0.906 ± 0.027 | 0.9439 ± 0.0084 | 0.949 ± 0.038
0.1235 µM | 1.09 ± 0.028 | 1.017 ± 0.0085 | 0.922 ± 0.03 | 0.953 ± 0.043 | 0.933 ± 0.066
0.3704 µM | 1.11 ± 0.026 | 0.997 ± 0.021 | 0.895 ± 0.027 | 0.931 ± 0.013 | 0.886 ± 0.037
1.111 µM | 1.09 ± 0.032 | 0.975 ± 0.028 | 0.8678 ± 0.0055 | 0.885 ± 0.016 | 0.875 ± 0.039
3.333 µM | 1.05 ± 0.034 | 0.9 ± 0.045 | 0.786 ± 0.032 | 0.826 ± 0.011 | 0.816 ± 0.071
10 µM | 0.886 ± 0.015 | 0.8026 ± 0.0076 | 0.585 ± 0.025 | 0.692 ± 0.0091 | 0.724 ± 0.037

C[C@H](Nc1ncnc2nc[nH]c12)c1cc2cccc(Cl)c2c(=O)n1-c1ccccc1 [Duvelisib]
relative viability
Settings | [1] | [2] | [3] | [4] | [5]
0.00017 µM | 1.08 ± 0.037 | 1.05 ± 0.058 | 0.98 ± 0.036 | 1.074 ± 0.0076 | 1.03 ± 0.015
0.00051 µM | 1.1 ± 0.031 | 1.11 ± 0.088 | 0.961 ± 0.019 | 1.06 ± 0.025 | 1.01 ± 0.021
0.00152 µM | 1.13 ± 0.043 | 1.08 ± 0.06 | 0.964 ± 0.017 | 1.03 ± 0.029 | 0.994 ± 0.026
0.00457 µM | 1.11 ± 0.041 | 1.09 ± 0.078 | 0.944 ± 0.041 | 1.02 ± 0.034 | 0.995 ± 0.035
0.01372 µM | 1.12 ± 0.046 | 1.06 ± 0.041 | 0.906 ± 0.043 | 1.02 ± 0.025 | 0.9906 ± 0.0096
0.04115 µM | 1.11 ± 0.034 | 1.04 ± 0.028 | 0.9422 ± 0.0037 | 0.996 ± 0.013 | 1.01 ± 0.039
0.1235 µM | 1.08 ± 0.044 | 1.05 ± 0.025 | 0.923 ± 0.073 | 0.915 ± 0.012 | 0.925 ± 0.071
0.3704 µM | 1.07 ± 0.045 | 1.02 ± 0.037 | 0.849 ± 0.045 | 0.885 ± 0.043 | 0.911 ± 0.092
1.111 µM | 0.994 ± 0.011 | 0.952 ± 0.054 | 0.77 ± 0.0065 | 0.786 ± 0.042 | 0.841 ± 0.053
3.333 µM | 0.84 ± 0.03 | 0.9 ± 0.051 | 0.631 ± 0.016 | 0.761 ± 0.034 | 0.797 ± 0.079
10 µM | 0.619 ± 0.013 | 0.777 ± 0.017 | 0.453 ± 0.019 | 0.614 ± 0.084 | 0.688 ± 0.042

COc1cc(Nc2ncc(F)c(Nc3ccc4c(n3)N(COP(=O)(O)O)C(=O)C(C)(C)O4)n2)cc(OC)c1OC [Fostamatinib]
relative viability
Settings | [1] | [2] | [3] | [4] | [5]
0.00017 µM | 1.09 ± 0.017 | 1.08 ± 0.045 | 0.904 ± 0.011 | 0.996 ± 0.017 | 0.964 ± 0.042
0.00051 µM | 1.1 ± 0.03 | 1.08 ± 0.047 | 0.94 ± 0.062 | 0.997 ± 0.017 | 0.953 ± 0.042
0.00152 µM | 1.11 ± 0.069 | 1.08 ± 0.073 | 0.932 ± 0.015 | 0.997 ± 0.016 | 0.969 ± 0.043
0.00457 µM | 1.1 ± 0.014 | 1.08 ± 0.043 | 0.921 ± 0.039 | 1.01 ± 0.007 | 0.958 ± 0.023
0.01372 µM | 1.11 ± 0.048 | 1.07 ± 0.053 | 0.943 ± 0.033 | 0.9999 ± 0.0047 | 0.966 ± 0.025
0.04115 µM | 1.13 ± 0.066 | 1.07 ± 0.016 | 0.931 ± 0.035 | 0.965 ± 0.025 | 0.922 ± 0.034
0.1235 µM | 1.07 ± 0.054 | 1.01 ± 0.062 | 0.853 ± 0.043 | 0.8997 ± 0.007 | 0.912 ± 0.071
0.3704 µM | 0.991 ± 0.04 | 0.892 ± 0.046 | 0.768 ± 0.03 | 0.773 ± 0.047 | 0.656 ± 0.026
1.111 µM | 0.96 ± 0.023 | 0.559 ± 0.012 | 0.861 ± 0.03 | 0.6 ± 0.059 | 0.379 ± 0.013
3.333 µM | 0.535 ± 0.011 | 0.196 ± 0.0087 | 0.332 ± 0.019 | 0.296 ± 0.011 | 0.22 ± 0.02
10 µM | 0.457 ± 0.015 | 0.0301 ± 0.0056 | 0.043 ± 0.00086 | 0.256 ± 0.026 | 0.167 ± 0.012

Reference: the supplement of paper PMC10883282
